Laboratory results: US20250018046A1, “COMPOUNDS FOR TARGETING DEGRADATION OF IRAK4 PROTEINS” (BIOGEN MA INC, priority 2021, published 2025)

Target: T1, IRAK4 (Homo sapiens, UniProt Q9NWZ3)
T1 construct: knocking-in a HiBiT fusion tag into the C-terminal of the IRAK4 gene in 293T cells; host or cells: 293T cells, knock-in of HiBiT at the endogenous IRAK4 locus
T1 sequence (Q9NWZ3 1-460): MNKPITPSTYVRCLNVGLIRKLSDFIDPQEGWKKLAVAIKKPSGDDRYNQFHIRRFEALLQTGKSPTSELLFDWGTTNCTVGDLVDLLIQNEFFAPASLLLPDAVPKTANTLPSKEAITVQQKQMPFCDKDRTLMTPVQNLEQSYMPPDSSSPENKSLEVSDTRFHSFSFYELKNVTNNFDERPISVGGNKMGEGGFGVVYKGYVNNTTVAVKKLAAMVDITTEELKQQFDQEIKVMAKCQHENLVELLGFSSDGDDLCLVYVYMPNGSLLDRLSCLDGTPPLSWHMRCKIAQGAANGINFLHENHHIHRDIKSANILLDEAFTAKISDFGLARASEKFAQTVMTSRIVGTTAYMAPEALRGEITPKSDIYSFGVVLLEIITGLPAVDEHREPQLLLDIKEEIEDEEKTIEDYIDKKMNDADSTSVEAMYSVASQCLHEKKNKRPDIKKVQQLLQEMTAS
Experiment: IRAK4 degradation assay using the HiBiT Method
Type: cell-based
Conditions: 293T cells expressing HiBiT-tagged IRAK4; 6-hour incubation; Nano-Glo HiBiT Lytic Assay luminescence
Summary of the method: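 HEK293T cells with HiBiT knocked into the IRAK4 C-terminus, 10,000 cells per well, treated with an 11-point half-log series […] in duplicate for 6 hours at 37° C., 5% CO2. Remaining IRAK4 quantified by Nano-Glo HiBiT lytic luminescence against DMSO controls.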

Compound | DC50
CC(C)Oc1cc2nc(CC3CCN(C(=O)CN4CCC(c5ccc(C6CCC(=O)NC6=O)cc5)CC4)CC3)cn2cc1NC(=O)c1cccc(C(F)(F)F)n1 (stereo not drawn) [Example 79, N-[2-[[1-[2-[4-[4-(2,6-dioxo-3-piperidyl)phenyl]-1-piperidyl]acetyl]-4-piperidyl]methyl]-7-isopropoxy-imidazo[1,2-a]pyridin-6-yl]-6-(trifluoromethyl)pyridine-2-carboxamide] | 10 to 100 nM
CC(C)Oc1cc2nc(C3CCN(C(=O)C4CC5(CCCN5C(=O)c5ccc(OC6CCC(=O)NC6=O)cc5)C4)CC3)cn2cc1NC(=O)c1cccc(C(F)(F)F)n1 (stereo not drawn) [Example 80, N-[2-[1-[5-[4-[(2,6-dioxo-3-piperidyl)oxy]benzoyl]-5-azaspiro[3.4]octane-2-carbonyl]-4-piperidyl]-7-isopropoxy-imidazo[1,2-a]pyridin-6-yl]-6-(trifluoromethyl)pyridine-2-carboxamide] | 100 to 500 nM
CC(C)Oc1cc2nc(C3CCN(C(=O)CCC4CCN(C(=O)c5ccc(OC6CCC(=O)NC6=O)cc5)CC4)CC3)cn2cc1NC(=O)c1cccc(C(F)(F)F)n1 (stereo not drawn) [Example 81, N-[2-[1-[3-[1-[4-[(2,6-dioxo-3-piperidyl)oxy]benzoyl]-4-piperidyl]propanoyl]-4-piperidyl]-7-isopropoxy-imidazo[1,2-a]pyridin-6-yl]-6-(trifluoromethyl)pyridine-2-carboxamide] | 100 to 500 nM
CC(C)Oc1cc2nc(C3CCN(C(=O)c4ccccc4CNC(=O)c4ccc(OC5CCC(=O)NC5=O)cc4)CC3)cn2cc1NC(=O)c1cccc(C(F)(F)F)n1 (stereo not drawn) [Example 82, N-[2-[1-[2-[[[4-[(2,6-dioxo-3-piperidyl)oxy]benzoyl]amino]methyl]benzoyl]-4-piperidyl]-7-isopropoxy-imidazo[1,2-a]pyridin-6-yl]-6-(trifluoromethyl)pyridine-2-carboxamide] | 100 to 500 nM
CC(C)Oc1cc2nc(C3CCN(C(=O)C4CCCC5(CCN(C(=O)c6ccc(OC7CCC(=O)NC7=O)cc6)CC5)O4)CC3)cn2cc1NC(=O)c1cccc(C(F)(F)F)n1 (stereo not drawn) [Example 83, N-[2-[1-[9-[4-[(2,6-dioxo-3-piperidyl)oxy]benzoyl]-1-oxa-9-azaspiro[5.5]undecane-2-carbonyl]-4-piperidyl]-7-isopropoxy-imidazo[1,2-a]pyridin-6-yl]-6-(trifluoromethyl) pyridine-2-carboxamide] | 100 to 500 nM
CC(C)Oc1cc2nc(C3CCN(C(=O)C4CCN(C(=O)c5ccc(OC6CCC(=O)NC6=O)cc5)CC4)CC3)cn2cc1NC(=O)c1cccc(C(F)(F)F)n1 (stereo not drawn) [Example 84, N-[2-[1-[1-[4-[(2,6-dioxo-3-piperidyl)oxy]benzoyl]piperidine-4-carbonyl]-4-piperidyl]-7-isopropoxy-imidazo[1,2-a]pyridin-6-yl]-6-(trifluoromethyl)pyridine-2-carboxamide] | 500 to 1000 nM
Cc1cc(N2CCN(C(=O)CN3CCC(c4cn5cc(NC(=O)c6cccc(C(F)(F)F)n6)c(OC(C)C)cc5n4)CC3)CC2)ccc1NC1CCC(=O)NC1=O (stereo not drawn) [Example 85, N-[2-[1-[2-[4-[4-[(2,6-dioxo-3-piperidyl)amino]-3-methyl-phenyl]piperazin-1-yl]-2-oxo-ethyl]-4-piperidyl]-7-isopropoxy-imidazo[1,2-a]pyridin-6-yl]-6-(trifluoromethyl) pyridine-2-carboxamide] | 100 to 500 nM
CC(C)Oc1cc2nc(C3CCN(CC(=O)N4CCC(Oc5ccc(NC6CCC(=O)NC6=O)cc5)CC4)CC3)cn2cc1NC(=O)c1cccc(C(F)(F)F)n1 (stereo not drawn) [Example 86, N-[2-[1-[2-[4-[4-[(2,6-dioxo-3-piperidyl)amino]phenoxy]-1-piperidyl]-2-oxo-ethyl]-4-piperidyl]-7-isopropoxy-imidazo[1,2-a]pyridin-6-yl]-6-(trifluoromethyl)pyridine-2-carboxamide] | 100 to 500 nM
Cc1cc(NC2CCC(=O)NC2=O)ccc1C1CCN(C(=O)CN2CCC(c3cn4cc(NC(=O)c5cccc(C(F)(F)F)n5)c(OC(C)C)cc4n3)CC2)CC1 (stereo not drawn) [Example 87, N-[2-[1-[2-[4-[4-[(2,6-dioxo-3-piperidyl)amino]-2-methyl-phenyl]-1-piperidyl]-2-oxo-ethyl]-4-piperidyl]-7-isopropoxy-imidazo[1,2-a]pyridin-6-yl]-6-(trifluoromethyl) pyridine-2-carboxamide] | 10 to 100 nM
